Literature values in patent US20070048250A1, “Methods of treating concomitant constipation in a cancer treatment regimen including imexon” (AmpliMed Corporation, priority 2005, published 2007).

How the values were obtained:
[1] = tested on: fresh human tumor cell lines; conditions: cited from earlier work
dogs = conditions: numerous studies; cited from earlier work
mast cell tumors = conditions: dog, in vivo; cited from earlier work
cancer patients = conditions: phase I; cited from earlier work
[2] = combined with cisplatin, dacarbazine, melphalan, cytarabine, 5-fluorouracil, gemcitabine, or docetaxel; cited from earlier work
rats = conditions: numerous studies; cited from earlier work

N=C1NC(=O)N2CC12 (centres unmarked) [imexon, 4-imino-1,3-diazabicyclo[3.1.0]-hexan-2-one]
activity against fresh human tumor cell lines in clonogenic assay [1]: active
cytotoxicity to multiple myeloma in the clonogenic assay ([1]; multiple myeloma): selective cytotoxicity
gastrointestinal lesions on pathologic examination (dogs): not shown evidence of gastrointestinal lesions
tumor response in dogs with mast cell tumors (mast cell tumors): Objective responses have been observed
clinical response (cancer patients): produced objective responses or stabilized neoplastic diseases
tolerability (cancer patients): well tolerated
effect of combination [2]: synergistic therapeutic cytotoxic effect
gastrointestinal lesions on pathologic examination (rats): not shown evidence of gastrointestinal lesions
